Test results as given in patent publication US20160272635A1, “SUBSTITUTED DIHYDROPYRIDO[3,4-B]PYRAZINONES AS DUAL INHIBITORS OF BET PROTEINS AND POLO-LIKE KINASES” (BAYER PHARMA AKTIENGESELLSCHAFT, priority 2013, published 2016).
Like-named read-outs stand apart in the source and are kept apart here.

What was measured:
MOLM-13 cell line = test: MOLM-13 cell proliferation assay (alamarBlue); format: cell-based; conditions: Homo sapiens; MOLM-13 cells, 96 hours incubation, inhibition of cell proliferation
Procedure: In accordance with the invention, the substances were tested for their ability to inhibit the proliferation of the MOLM-13 cell linie (Deutsche Sammlung far Mikroorganismen and Zellkulturen [German Collection of Microorganisms and Cell Cultures], ACC 554). Cell viability was determined by means of the alamarBlue® reagent (Invitrogen) in a Victor X3 Multilabel Reader (Perkin Elmer). The excitation wavelength was 530 nm and the emission wavelength […].
The MOLM-13 cells were shown at a density of 4000 cells/well in 100 μl of growth medium on 96-well microtitre plates. After overnight incubation at 37° C., the fluorescence values (CI values) were determined. The plates were then treated with various substance dilutions and incubated at 37° C. for 96 hours. Subsequently, the fluorescence values were determined (CO values). For the data analysis, the CI values were subtracted from the CO values and the results were compared between cells which had been treated with various dilutions of the substance or only with buffer solution. The IC50 values (substance concentration needed for 50% inhibition of cell proliferation) were calculated therefrom.

Plk-1 = biological target: T1, Plk-1 (Homo sapiens, UniProt P53350); test: Plk-1 enzyme assay (indirect HTRF kinase assay); format: biochemical
T1 construct: Recombinant fusion protein consisting of GST and Plk (kinase domain 33-345); MW 36 kDa; GST; made in house; host or cells: insect cells (Hi5)
Procedure: Recombinant fusion protein consisting of GST and Plk (kinase domain 33-345; MW 36 kDa, conc 0.8 μg/μl) expressed from insect cells (Hi5) and purified by glutathione Sepharose affinity chromatography and subsequent gel filtration (Superdex 75) is used for the kinase assay. Aliquots thereof are frozen in liquid nitrogen and stored at −80° C. and, after thawing, used only once.
The assay used is an indirect HTRF assay which employs the following materials and procedures. The substrate used for the kinase reaction is the biotinylated peptide Btn-Ahx-KKLNRTLSFAEPG-amide x TFA from Biosyntan, Sample No.: 6178.1 (C-terminus in amide form). This is an artificial sequence not derived from any known protein. 50 nl of the test compounds dissolved in 100% dimethyl sulphoxide (DMSO) (final concentrations: 0 μM and concentrations in the range of 0.001-20 μM) are pre-incubated with 2 μl Plk-1 enzyme working solution in working buffer [25 mM MgCl2; 1 mM DTT; 50 mM Hepes pH 7.0; 0.01% NP40; 1× Complete; 0.05% BSA] for 30 min. The kinase reaction is then initiated by addition of 3 μl of substrate solution [adenosine triphosphate (ATP) and 1.4 μM substrate peptide (biotin-Ttds-KKLNRTLSFAEPG-NH2)] in working buffer, and, after 30 min, stopped by addition of a stopper solution (100 mM EDTA, 100 mM Hepes pH 7.5, 800 mM potassium fluoride, 0.12% BSA, 0.4 μM SA-XLent (0.05 μM, from CIS bio international, Marcoule, France), Eu^3+ cryptate-conjugated rabbit anti-mouse IgG (1.5 nM; an anti-mouse IgG antibody labelled with europium cryptate from CIS bio international, Marcoule, France), 1 nM anti-phospho-serine kinase (a phospho-specific antibody from Upstate Biotechnology, Dundee, Scotland), and incubated at 4° C. overnight.
For the test at low ATP concentration, a 1.25 ng/μl Plk-1 working solution and 16.7 μM ATP are used, for the test at high ATP concentration, a 0.039 ng/μl Plk-1 working solution and 16.7 mM ATP are used.
The amount of phosphorylated substrate peptide is then determined by measuring the resonance energy transfer from europium-labelled antibody complex to streptavidine-XLent. To this end, the fluorescence emission at 620 nm and 665 nm is measured following excitation at 350 nm in an HTRF measuring instrument, e.g. Rubystar (BMG Labtechnologies, Offenburg, Germany) or Viewlux (Perkin-Elmer). The ratio of the emissions at 665 nm and at 620 nm is taken as a measure of the amount of phosphorylated substrate peptide. The data are normalized (enzyme reaction without inhibitor=0% inhibition, all other assay components, but no enzyme=100% inhibition), and IC50 values are calculated using a 4 parameter equation (minimum, maximum, IC50, Hill; Y=max+(min−max)/(1+(X/IC50)Hill)).

[1] = biological target: T2, BRD4 bromo domain 1 [BRD4(1)] (Homo sapiens, UniProt O60885); test: BRD4(1)/acetylated peptide H4 binding assay (TR-FRET); conditions: inhibition of interaction between BRD4(1) and acetylated histone H4 peptide
T2 construct: N-terminally His6-tagged BRD4(1) (amino acids 67-152); made in house; host or cells: E. coli
Description: To assess the BRD4(1) binding strength of the substances described in this application, the ability thereof to inhibit the interaction between BRD4(1) and acetylated histone H4 in a dose-dependent manner was quantified.
For this purpose, a time-resolved fluorescence resonance energy transfer (TR-FRET) assay was used, which measures the binding between N-terminally His6-tagged BRD4(1) (amino acids 67-152) and a synthetic acetylated histone H4 (Ac-H4) peptide with sequence GRGK(Ac)GGK(Ac)GLGK(Ac)GGAK(Ac)RHGSGSK-biotin. The recombinant BRD4(1) protein produced in-house according to Filippakopoulos et al., Cell, 2012, 149:214-231 was expressed in E. coli and purified by means of (Ni-NTA) affinity and (Sephadex G-75) size exclusion chromatography. The Ac-H4 peptide can be purchased, for example, from Biosyntan (Berlin, Germany).
In the assay, typically 11 different concentrations of each substance (0.1 nM, 0.33 nM, 1.1 nM, 3.8 nM, 13 nM, 44 nM, 0.15 μM, 0.51 μM, 1.7 μM, 5.9 μM and 20 μM) were analysed as duplicates on the same microtitre plate. For this purpose, 100-fold concentrated solutions in DMSO were prepared by serial dilutions (1:3.4) of a 2 mM stock solution into a clear, 384-well microtitre plate (Greiner Bio-One, Frickenhausen, Germany). From this, 50 n1 were transferred into a black test plate (Greiner Bio-One, Frickenhausen, Germany). The test was started by the addition of 2 μl of a 2.5-fold concentrated BRD4(1) solution (final concentration typically 10 nM in the 5 μl of reaction volume) in aqueous assay buffer [50 mM HEPES pH 7.5, 50 mM sodium chloride (NaCl), 0.25 mM CHAPS and 0.05% serum albumin (BSA)] to the substances in the test plate. This was followed by a 10-minute incubation step at 22° C. for the pre-equilibration of putative complexes between BRD4(1) and the substances.
The mixture was then incubated in the dark at 22° C. for one hour and then at 4° C. for at least 3 hours and for no longer than overnight. The formation of BRD4(1)/Ac-H4 complexes was determined by the measurement of the resonance energy transfer from the streptavidin-Eu cryptate to the anti-6His-XL665 antibody present in the reaction. For this purpose, the fluorescence emission was measured at 620 nm and 665 nm after excitation at 330-350 nm in a TR-FRET measuring instrument, for example a Rubystar or Pherastar (both from BMG Lab Technologies, Offenburg, Germany) or a Viewlux (Perkin-Elmer). The ratio of the emissions at 665 nm and at 622 nm was taken as an indicator of the amount of BRD4(1)/Ac-H4 complexes formed.
The data (ratios) obtained were normalized, with 0% inhibition corresponding to the mean from the measurements for a set of controls (typically 32 data points) in which all the reagents were present. In these, in place of test substances, 50 nl of DMSO (100%) were used Inhibition of 100% corresponded to the mean from the measurements for a set of controls (typically 32 data points) in which all the reagents except BRD4(1) were present. The IC50 was determined by regression analysis based on a 4-parameter equation (minimum, maximum, IC50, Hill; Y=Max+(Min−Max)/(1+(X/IC50)Hill).

[2] = 10 μM ATP (low ATP concentration), read-out: IC50 [Plk-1] (10 μM ATP)
[3] = 10 mM ATP (high ATP concentration), read-out: IC50 [Plk-1] (10 mM ATP)

T1 sequence (P53350 33-345): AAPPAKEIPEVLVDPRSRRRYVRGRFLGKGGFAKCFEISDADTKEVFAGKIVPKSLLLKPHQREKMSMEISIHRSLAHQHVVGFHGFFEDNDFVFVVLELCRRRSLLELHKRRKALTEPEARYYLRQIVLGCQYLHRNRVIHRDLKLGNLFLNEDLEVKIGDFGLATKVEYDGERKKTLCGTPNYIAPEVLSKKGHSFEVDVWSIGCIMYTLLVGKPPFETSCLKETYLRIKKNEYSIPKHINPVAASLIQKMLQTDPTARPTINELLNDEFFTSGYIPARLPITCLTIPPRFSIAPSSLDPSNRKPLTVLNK

SMILES | IC50 (MOLM-13 cell line) [µM] | IC50 (Plk-1; [2]) [µM] | IC50 (Plk-1; [3]) [µM] | IC50 [1] [µM]
CC[C@@H]1C(=O)N(C)c2cnc(Nc3ncc(C(=O)NC4CCN(C)CC4)cc3OC)cc2N1C1CCCC1 [Example 14, 6-[[(2R)-1-Cyclopentyl-2-ethyl-1,2,3,4-tetrahydro-4-methyl-3-oxopyrido[3,4-b]pyrazin-7-yl]amino]-5-methoxy-N-(1-methyl-4-piperidinyl)-3-pyridinecarboxamide] | 0.032 | 0.011 | 0.029 | 0.458
CC[C@@H]1C(=O)N(C)c2cnc(Nc3ncc(C4=NC(C)(C)CO4)cc3OC)cc2N1C1CCCC1 [Example 19, 1N-Cyclopentyl-7-[[5-(4,5-dihydro-4,4-dimethyl-2-oxazolyl)-3-methoxy-2-pyridinyl]amino]-(2R)-ethyl-4N-methyl-1,4-dihydropyrido[3,4-b]pyrazin-3(2H)-one] | 0.362 |  | 0.099 | 0.732
CC[C@@H]1C(=O)N(C)c2cnc(Nc3ncc(C(=O)NCc4cccnc4)cc3OC)cc2N1C1CCCC1 [Example 12, 6-[[(2R)-1-Cyclopentyl-2-ethyl-1,2,3,4-tetrahydro-4-methyl-3-oxopyrido[3,4-b]pyrazin-7-yl]amino]-5-methoxy-N-(3-pyridinylmethyl)-3-pyridinecarboxamide] | 0.052 |  | 0.023 | 0.424
CC[C@@H]1C(=O)N(C)c2cnc(Nc3ncc(C(=O)NC4CCN(C)CC4)cc3C)cc2N1C1CCCC1 [Example 18, 6-[[(2R)-1-Cyclopentyl-2-ethyl-1,2,3,4-tetrahydro-4-methyl-3-oxopyrido[3,4-b]pyrazin-7-yl]amino]-5-methyl-N-(1-methyl-4-piperidinyl)pyridine-3-carboxamide] | 0.042 |  | 0.007 | 0.649
CCc1cc(C(=O)NC2CC2)cnc1Nc1cc2c(cn1)N(C)C(=O)[C@@H](CC)N2C1CCCC1 [Example 3, 6-{[(2R)-1-Cyclopentyl-2-ethyl-4-methyl-3-oxo-1,2,3,4-tetrahydropyrido[3,4-b]pyrazin-7-yl]amino}-N-cyclopropyl-5-ethylpyridine-3-carboxamide] | 0.061 | 0.008 | 0.017 | 0.199
CC[C@@H]1C(=O)N(C)c2cnc(Nc3ncc(C(=O)NC4CC4)cc3OC)cc2N1C1CCCC1 [Example 5, 6-[[(2R)-1-Cyclopentyl-2-ethyl-1,2,3,4-tetrahydro-4-methyl-3-oxopyrido[3,4-b]pyrazin-7-yl)amino]-N-cyclopropyl-5-methoxy-3-pyridinecarboxamide] | 0.029 | 0.007 | 0.021 | 0.225
CC[C@@H]1C(=O)N(C)c2cnc(Nc3ncc(C(=O)N[C@@H]4CCCCNC4=O)cc3C)cc2N1C1CCCC1 [Example 15] | 0.077 | 0.013 | 0.022 | 0.496
COc1cc(C(=O)NC2CCN(C)CC2)cnc1Nc1cc2c(cn1)N(C)C(=O)C(C)N2C1CCCC1 (centres unmarked) [Example 6, 6-[(1-Cyclopentyl-2,4-dimethyl-3-oxo-1,2,3,4-tetrahydropyrido[3,4-b]pyrazin-7-yl)amino]-5-methoxy-N-(1-methylpiperidin-4-yl)pyridine-3-carboxamide] | 0.114 |  | 0.019 | 0.243
CC[C@@H]1C(=O)N(C)c2cnc(Nc3ncc(C(=O)NC(C)(C)CO)cc3OC)cc2N1C1CCCC1 [Example 11, 6-[[(2R)-1-Cyclopentyl-2-ethyl-1,2,3,4-tetrahydro-4-methyl-3-oxopyrido[3,4-b]pyrazin-7-yl]amino]-N-(2-hydroxy-1,1-dimethylethyl)-5-methoxy-3-pyridinecarboxamide] | 0.074 |  | 0.057 | 0.393
CC[C@@H]1C(=O)N(C)c2cnc(Nc3ncc(C(=O)NC4CC4)cc3C)cc2N1C1CCCC1 [Example 13, 6-{[(2R)-1-Cyclopentyl-2-ethyl-4-methyl-3-oxo-1,2,3,4-tetrahydropyrido[3,4-b]pyrazin-7-yl]amino}-N-cyclopropyl-5-methylpyridine-3-carboxamide] | 0.056 | 0.007 | 0.015 | 0.434
CC[C@@H]1C(=O)N(C)c2cnc(Nc3ncc(C(=O)NC4CCCCC4)cc3OC)cc2N1C1CCCC1 [Example 20, N-Cyclohexyl-6-[[(2R)-1-cyclopentyl-2-ethyl-1,2,3,4-tetrahydro-4-methyl-3-oxopyrido[3,4-b]pyrazin-7-yl]amino]-5-methoxypyridine-3-carboxamide] | 0.101 |  | 0.035 | 0.878
